According to patent US20080171737A1 (Wyeth, priority 2006, published 2008):
Structures can show the parent of a compound that is named as a salt.

The compounds below were run against T1, human hNET (Homo sapiens, UniProt P23975) (assay: Functional norepinephrine reuptake assay, Procedure B (6,000 cells/well)). Conditions: not given.
T1 construct: expressed in transfected cells; host or cells: MDCK-Net6 (MDCK cells stably transfected with hNET)
Type: cell-based
Description: For screening, 25 μl aliquots of compound solution at a 1 μM or 10 μM final concentration was delivered directly to cells.
For IC50 determinations, stock compounds were prepared at 10 mM from powder. The stock solution was diluted according to compound testing range. […] On the day of assay, 25 μl of compound solution at the specified concentrations were added to the plates containing cells. A DMSO stock of desipramine was prepared at 10 mM in DMSO and diluted for a final concentration of 20 μM to determine the non-specific reuptake.
MDCK-Net6 cells, stably transfected with human hNET (Pacholczyk, 1991), were maintained in growth media [high glucose DMEM (Gibco Cat. 11995), 10% FBS (dialyzed, heat-inactivated, Sigma, dialysed, heat inactivated, Lot# K0922 or equivalent) 1xPen/Strep, and 500 μg/ml G418 (Gibco Cat. 10131)]. Cells were plated at 300,000/T75 flask and cells split twice weekly.
Cells were plated at 50,000 cells/well (Procedure A) or 6,000 cells/well (Procedure B) on day 1 in BD Falcon Microtest 96-well sterile cell culture plates, Optilux White/Clear Bottom TC plate (VWR; # 62406-466 or equivalent) in growth media and maintained in a cell incubator (37° C., 5% CO2). On Day 2, cells were removed from the cell incubator and the growth media is replaced by 200 μl of assay buffer (25 mm HEPES 120 mM NaCL; 5 mM KCl; 2.5 mM CaCl2; 1.2 mM MgSO4; 2 mg/ml glucose (pH 7.4, 37° C.)) containing 0.2 mg/ml ascorbic acid and 1 μM parglyine. For screening, 25 μl of compound in 4% DMSO was added directly to each well and the plate was incubated for 5 minutes (37° C.). […] The reaction is aspirated from the plate and the cells washed with 250 μl of 50 mM Tris Buffer (4° C.). The plates were left to dry for 1 hour. The cells were lysed using 0.25 M NaOH solution then placed on a shake table and vigorously shaken for 10 minutes. After cell lysis, 100 μl of Microscint 20 (PerkinElmer; #87-051101) was added to the plates and the plates were sealed with film tape and replaced on the shake table for a minimum of 10 minutes. The plates were counted in a TopCount counter (PerkinElmer).
% inhibition=[1−((mean cpm test compound wells−mean cpm non-specific wells)/(mean cpm control wells−mean cpm non-specific wells))]×100
For IC50 determination, raw cpm values were generated in a data file from the TopCount counter. The data was organized using the Microsoft Excel and transferred into PRIZM graphing and statistical program, which calculated the estimated IC50 value. Calculation of IC50 values was made using non-linear regression analysis with a sigmoidal dose response with variable slope. The statistical program used wells containing ^3H norepinephrine only as the maximal NE reuptake determinant and wells containing ^3H norepinephrine plus 20 μM desipramine (AHR-9543) as the minimal NE reuptake determinant (non-specific determinant). Estimation of the IC50 value was completed on a log scale and the line was fit between the maximal and minimal NE reuptake values.

T1 sequence (P23975 whole entry): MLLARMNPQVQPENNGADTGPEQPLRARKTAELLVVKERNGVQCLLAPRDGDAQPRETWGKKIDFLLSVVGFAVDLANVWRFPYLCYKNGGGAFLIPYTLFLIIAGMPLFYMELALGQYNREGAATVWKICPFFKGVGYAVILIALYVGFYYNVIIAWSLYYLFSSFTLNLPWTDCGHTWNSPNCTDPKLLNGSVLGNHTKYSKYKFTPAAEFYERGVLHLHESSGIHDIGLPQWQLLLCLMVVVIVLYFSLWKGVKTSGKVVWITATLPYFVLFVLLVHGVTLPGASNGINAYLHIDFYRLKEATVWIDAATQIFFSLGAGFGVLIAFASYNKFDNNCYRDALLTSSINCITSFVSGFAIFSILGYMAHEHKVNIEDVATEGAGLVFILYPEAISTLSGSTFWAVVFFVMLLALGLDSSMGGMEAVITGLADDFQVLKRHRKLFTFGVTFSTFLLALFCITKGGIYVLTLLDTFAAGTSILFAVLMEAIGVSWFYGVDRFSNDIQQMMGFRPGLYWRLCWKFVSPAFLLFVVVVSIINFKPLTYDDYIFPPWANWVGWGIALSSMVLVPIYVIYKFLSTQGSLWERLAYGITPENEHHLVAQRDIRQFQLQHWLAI

Row | Compound | IC50 [µM]
1 | CNCCC[C@@H]1Cc2cc(F)ccc2N(c2ccccc2F)S1(=O)=O (single isomer, unassigned) [Example 110] | 0.011
2 | CNCCC[C@H]1Cc2ccccc2N(c2c(F)cccc2F)S1(=O)=O (single isomer, unassigned) [Example 121] | 0.052
3 | CNCCC[C@@H]1Cc2ccccc2N(c2c(F)cccc2F)S1(=O)=O (single isomer, unassigned) [Example 122] | 0.005
4 | CNCCC[C@H]1Cc2cc(F)ccc2N(c2c(F)cccc2F)S1(=O)=O (single isomer, unassigned) [Example 155] | 0.025
5 | CNCCC[C@@H]1Cc2cc(F)ccc2N(c2c(F)cccc2F)S1(=O)=O (single isomer, unassigned) [Example 156] | 0.027

Same assay, conditions: MDCK-Net6 cells, 6,000 cells/well, 16 nM 3H-norepinephrine; read-out: Procedure B hNET uptake IC50

Row | Compound | IC50 [µM]
6 | CNCCC[C@H]1Cc2cc(F)ccc2N(c2ccc(F)cc2F)S1(=O)=O (single isomer, unassigned) [Example 112] | 0.1
7 | CNCCC[C@@H]1Cc2cc(F)ccc2N(c2ccc(F)cc2F)S1(=O)=O (single isomer, unassigned) [Example 113] | 0.034
8 | CNCC[C@H](O)[C@@H]1Cc2ccccc2N(c2ccccc2)S1(=O)=O (single isomer, unassigned) [Example 114] | 0.101
9 | CNCC[C@@H](O)[C@@H]1Cc2ccccc2N(c2ccccc2)S1(=O)=O (single isomer, unassigned) [Example 115] | 0.546
10 | CNCC[C@@H](O)[C@H]1Cc2ccccc2N(c2ccccc2)S1(=O)=O (single isomer, unassigned) [Example 116] | 0.085
11 | CNCC[C@H](O)[C@H]1Cc2ccccc2N(c2ccccc2)S1(=O)=O (single isomer, unassigned) [Example 117] | 0.079
12 | CNCC[C@H]1Oc2cc(F)ccc2N(c2ccccc2)S1(=O)=O (single isomer, unassigned) [Example 118] | 0.143
13 | CNCC[C@@H]1Oc2cc(F)ccc2N(c2ccccc2)S1(=O)=O (single isomer, unassigned) [Example 119] | 0.494
14 | CNCCC[C@H]1Cc2ccccc2N(c2cccnc2)S1(=O)=O (single isomer, unassigned) [Example 124] | 1.71
15 | CNCCC[C@@H]1Cc2ccccc2N(c2cccnc2)S1(=O)=O (single isomer, unassigned) [Example 125] | 0.238
16 | CNCCC[C@H]1Cc2ccccc2N(c2ccccn2)S1(=O)=O (single isomer, unassigned) [Example 127] | 1.54
17 | CNCCC[C@@H]1Cc2ccccc2N(c2ccccn2)S1(=O)=O (single isomer, unassigned) [Example 128] | 0.089
18 | CNCCC[C@@H]1Oc2cc(F)ccc2N(c2ccccc2F)S1(=O)=O (single isomer, unassigned) [Example 130, Hydrochloride] | 0.045
19 | CNCCC[C@H]1Oc2cc(F)ccc2N(c2ccccc2F)S1(=O)=O (single isomer, unassigned) [Example 131, Hydrochloride] | 0.031
20 | CNCCC[C@H]1Cc2cc(F)ccc2N(c2cccc(F)c2F)S1(=O)=O (single isomer, unassigned) [Example 146] | 0.066
21 | CNCCC[C@@H]1Cc2cc(F)ccc2N(c2cccc(F)c2F)S1(=O)=O (single isomer, unassigned) [Example 147] | 0.034
22 | CNCCC[C@H]1Cc2cc(F)ccc2N(c2ccc(C)cc2F)S1(=O)=O (single isomer, unassigned) [Example 149] | 0.074
23 | CNCCC[C@@H]1Cc2cc(F)ccc2N(c2ccc(C)cc2F)S1(=O)=O (single isomer, unassigned) [Example 150] | 0.016
24 | CNCCC[C@H]1Cc2cc(F)ccc2N(c2cc(F)ccc2F)S1(=O)=O (single isomer, unassigned) [Example 152] | 0.04
25 | CNCCC[C@@H]1Cc2cc(F)ccc2N(c2cc(F)ccc2F)S1(=O)=O (single isomer, unassigned) [Example 153] | 0.043
26 | CNCCC[C@H]1Cc2cc(F)ccc2N(c2ccccc2Cl)S1(=O)=O (single isomer, unassigned) [Example 158] | 0.145

Row | Compound | IC50 [µM]
27 | CNCCC[C@@H]1Cc2cc(F)ccc2N(c2ccccc2Cl)S1(=O)=O (single isomer, unassigned) [Example 159] | 0.133
28 | CNCCC[C@H]1Cc2cc(F)ccc2N(c2ccccc2C)S1(=O)=O (single isomer, unassigned) [Example 161] | 0.143
29 | CNCCC[C@@H]1Cc2cc(F)ccc2N(c2ccccc2C)S1(=O)=O (single isomer, unassigned) [Example 162] | 0.135
30 | CNCCC[C@H]1Cc2cc(F)ccc2N(c2ccccc2C#N)S1(=O)=O (single isomer, unassigned) [Example 164] | 0.288
31 | CNCCC[C@@H]1Cc2cc(F)ccc2N(c2ccccc2C#N)S1(=O)=O (single isomer, unassigned) [Example 165] | 0.206
32 | CNCCC[C@H]1Cc2cc(F)ccc2N(c2ccccc2OC)S1(=O)=O (single isomer, unassigned) [Example 167] | 0.587
33 | CNCCC[C@@H]1Cc2cc(F)ccc2N(c2ccccc2OC)S1(=O)=O (single isomer, unassigned) [Example 168] | 0.341
34 | CNCCC[C@H]1Cc2cc(F)ccc2N(c2ccc(F)cc2C)S1(=O)=O (single isomer, unassigned) [Example 170] | 0.343
35 | CNCCC[C@@H]1Cc2cc(F)ccc2N(c2ccc(F)cc2C)S1(=O)=O (single isomer, unassigned) [Example 171] | 0.322
36 | CNCCC[C@H]1Cc2cc(Cl)ccc2N(c2ccccc2F)S1(=O)=O (single isomer, unassigned) [Example 176] | 0.02
37 | CNCCC[C@@H]1Cc2cc(Cl)ccc2N(c2ccccc2F)S1(=O)=O (single isomer, unassigned) [Example 177] | 0.043
38 | CNCCCC1Oc2ccccc2N(c2ccc(F)cc2)S1(=O)=O (centres unmarked) [Example 15, 3-[1-(4-fluorophenyl)-2,2-dioxido-1H-4,2,1-benzoxathiazin-3-yl]-N-methylpropan-1-amine] | 0.492
39 | CNCCCC1Oc2ccccc2N(c2cccc(C)c2)S1(=O)=O (centres unmarked) [Example 16, N-methyl-3-[1-(3-methylphenyl)-2,2-dioxido-1H-4,2,1-benzoxathiazin-3-yl]propan-1-amine] | 0.361
40 | CNCCCC1Oc2ccccc2N(c2ccc(C)cc2)S1(=O)=O (centres unmarked) [Example 17, N-methyl-3-[1-(4-methylphenyl)-2,2-dioxido-1H-4,2,1-benzoxathiazin-3-yl]propan-1-amine] | 0.0264
41 | CNCCCC1Oc2ccccc2N(c2cccc(OC)c2)S1(=O)=O (centres unmarked) [Example 18, 3-[1-(3-methoxyphenyl)-2,2-dioxido-1H-4,2,1-benzoxathiazin-3-yl]-N-methylpropan-1-amine] | 0.353
42 | CNCCCC1Oc2ccccc2N(c2ccc(OC)cc2)S1(=O)=O (centres unmarked) [Example 19, 3-[1-(4-methoxyphenyl)-2,2-dioxido-1H-4,2,1-benzoxathiazin-3-yl]-N-methylpropan-1-amine] | 1.2
43 | CNCCCC1Oc2ccccc2N(c2cccc(F)c2)S1(=O)=O (centres unmarked) [Example 20, 3-[1-(3-fluorophenyl)-2,2-dioxido-1H-4,2,1-benzoxathiazin-3-yl]-N-methylpropan-1-amine] | 0.106
44 | CNCCCC1Oc2ccccc2N(c2ccc3ccccc3c2)S1(=O)=O (centres unmarked) [Example 21, N-methyl-3-[1-(2-naphthyl)-2,2-dioxido-1H-4,2,1-benzoxathiazin-3-yl]propan-1-amine] | 4.57
45 | CNCCCC1Oc2ccccc2N(c2cc(C)cc(C)c2)S1(=O)=O (centres unmarked) [Example 22, 3-[1-(3,5-dimethylphenyl)-2,2-dioxido-1H-4,2,1-benzoxathiazin-3-yl]-N-methylpropan-1-amine] | 4.15
46 | CCNCCC1Oc2ccccc2N(c2ccccc2)S1(=O)=O (centres unmarked) [Example 23, 2-(2,2-dioxido-1-phenyl-1H-4,2,1-benzoxathiazin-3-yl)-N-ethylethanamine] | 0.244
47 | NCCC1Oc2ccccc2N(c2ccccc2)S1(=O)=O (centres unmarked) [Example 24, 2-(2,2-dioxido-1-phenyl-1H-4,2,1-benzoxathiazin-3-yl)ethanamine] | 0.583
